The target of series [1] is T1, OATP2B1 (Homo sapiens, UniProt O94956).
T1 sequence (O94956 whole entry): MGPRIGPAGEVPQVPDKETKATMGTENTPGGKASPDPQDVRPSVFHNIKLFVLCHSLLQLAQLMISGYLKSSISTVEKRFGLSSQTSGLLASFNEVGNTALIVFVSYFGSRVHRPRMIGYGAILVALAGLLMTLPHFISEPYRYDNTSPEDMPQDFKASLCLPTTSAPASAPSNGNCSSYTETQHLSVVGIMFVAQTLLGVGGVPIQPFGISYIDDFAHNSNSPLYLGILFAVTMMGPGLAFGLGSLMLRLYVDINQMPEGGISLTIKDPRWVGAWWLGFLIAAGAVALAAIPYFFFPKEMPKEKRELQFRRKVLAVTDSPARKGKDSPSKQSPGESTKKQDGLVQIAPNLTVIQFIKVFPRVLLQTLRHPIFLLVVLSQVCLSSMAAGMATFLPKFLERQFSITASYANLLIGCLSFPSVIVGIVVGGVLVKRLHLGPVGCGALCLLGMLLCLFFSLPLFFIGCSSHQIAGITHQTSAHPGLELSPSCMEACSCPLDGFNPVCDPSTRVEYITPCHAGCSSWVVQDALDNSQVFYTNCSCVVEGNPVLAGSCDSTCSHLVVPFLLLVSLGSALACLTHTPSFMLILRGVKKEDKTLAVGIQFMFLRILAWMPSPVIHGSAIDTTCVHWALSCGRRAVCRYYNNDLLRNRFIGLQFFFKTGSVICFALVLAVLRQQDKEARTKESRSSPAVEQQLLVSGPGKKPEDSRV
The experiment in a line: Drug uptake assessed as OATP2B1 (unknown origin)-mediated drug transport expressed in HEK293 cells by LC-MS/MS analysis relative to control. The note with it: HEK293 cells expressing OATP2B1. It counts as ADME, cell-based.

Series [2] deals with T2, UDP-glucuronosyltransferase 1A8 (Homo sapiens, UniProt Q9HAW9).
T2 sequence (Q9HAW9 whole entry): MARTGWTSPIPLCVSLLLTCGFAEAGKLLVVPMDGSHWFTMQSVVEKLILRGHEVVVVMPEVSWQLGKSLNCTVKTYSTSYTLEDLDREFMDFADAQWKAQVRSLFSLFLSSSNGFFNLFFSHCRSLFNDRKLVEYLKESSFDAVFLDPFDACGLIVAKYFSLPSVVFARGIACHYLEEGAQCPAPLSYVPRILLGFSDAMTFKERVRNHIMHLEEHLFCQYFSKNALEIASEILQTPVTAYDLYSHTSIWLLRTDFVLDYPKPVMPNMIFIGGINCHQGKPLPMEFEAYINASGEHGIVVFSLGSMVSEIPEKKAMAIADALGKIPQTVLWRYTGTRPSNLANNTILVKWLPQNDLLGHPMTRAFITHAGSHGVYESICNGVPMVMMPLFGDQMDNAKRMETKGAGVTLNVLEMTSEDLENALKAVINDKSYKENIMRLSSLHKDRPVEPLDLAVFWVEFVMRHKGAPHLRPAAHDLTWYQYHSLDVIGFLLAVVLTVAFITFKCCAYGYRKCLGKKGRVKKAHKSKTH
The series is described as follows: Ratio of Vmax to Km for drug metabolism assessed as human recombinant UGT1A8-mediated formation of scutellarein-6,7-diglucuronide after 25 mins by HPLC/UV analysis. Format: ADME. The note with it: recombinant enzyme.

The target of series [3] is T3, Solute carrier organic anion transporter family member 2B1 (Homo sapiens, UniProt O94956).
T3 sequence (O94956 whole entry): T1 sequence (O94956 whole entry)
The experiment in a line: Drug uptake assessed as OATP2B1 (unknown origin)-mediated drug transport expressed in HEK293 cells by LC-MS/MS analysis. Format: ADME, cell-based.

The target in series [4] is T4, UDP-glucuronosyltransferase 1A10 (Homo sapiens, UniProt Q9HAW8).
T4 sequence (Q9HAW8 whole entry): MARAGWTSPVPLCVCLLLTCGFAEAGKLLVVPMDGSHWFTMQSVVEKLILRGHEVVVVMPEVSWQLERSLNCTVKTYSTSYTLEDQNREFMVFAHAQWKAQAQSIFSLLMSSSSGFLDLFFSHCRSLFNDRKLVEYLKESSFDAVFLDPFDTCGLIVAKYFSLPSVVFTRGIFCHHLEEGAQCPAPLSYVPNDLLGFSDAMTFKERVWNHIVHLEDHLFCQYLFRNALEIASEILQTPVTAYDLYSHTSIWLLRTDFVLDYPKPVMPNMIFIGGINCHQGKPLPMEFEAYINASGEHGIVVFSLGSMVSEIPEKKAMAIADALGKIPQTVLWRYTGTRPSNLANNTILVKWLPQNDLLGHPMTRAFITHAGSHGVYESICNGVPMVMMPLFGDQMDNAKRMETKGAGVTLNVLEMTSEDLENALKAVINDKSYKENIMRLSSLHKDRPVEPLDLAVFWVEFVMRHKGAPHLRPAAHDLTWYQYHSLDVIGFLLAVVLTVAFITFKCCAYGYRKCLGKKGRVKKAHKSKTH
The experiment in a line: Ratio of Vmax to Km for drug metabolism assessed as human recombinant UGT1A10-mediated formation of scutellarein-6,7-diglucuronide after 25 mins by HPLC/UV analysis. Format: ADME. The note with it: recombinant enzyme.

In series [5] the target is ATP-binding cassette sub-family C member 3 (Homo sapiens, UniProt O15438). The experiment in a line: Inhibition of human MRP3-mediated estradiol-17beta-D-glucuronide formation using inside-out membrane vesicles by LC-MS/MS analysis.
Another series concerns Homo sapiens. The series is described as follows: Drug metabolism in human assessed as retention time of parent compound at 40 mg, po up to 20 hrs by mass defect filter chromatogram analysis. It counts as ADME, organism-based. The note with it: in vivo.
The nature of series [6]: Cmax in human at 60 mg, po. Format: ADME, organism-based. The arrangement: dose 60 mg, route oral. The note with it: in vivo.
Series [7] addresses T5, UDP-glucuronosyltransferase 1A1 (Homo sapiens, UniProt P22309).
T5 sequence (P22309 whole entry): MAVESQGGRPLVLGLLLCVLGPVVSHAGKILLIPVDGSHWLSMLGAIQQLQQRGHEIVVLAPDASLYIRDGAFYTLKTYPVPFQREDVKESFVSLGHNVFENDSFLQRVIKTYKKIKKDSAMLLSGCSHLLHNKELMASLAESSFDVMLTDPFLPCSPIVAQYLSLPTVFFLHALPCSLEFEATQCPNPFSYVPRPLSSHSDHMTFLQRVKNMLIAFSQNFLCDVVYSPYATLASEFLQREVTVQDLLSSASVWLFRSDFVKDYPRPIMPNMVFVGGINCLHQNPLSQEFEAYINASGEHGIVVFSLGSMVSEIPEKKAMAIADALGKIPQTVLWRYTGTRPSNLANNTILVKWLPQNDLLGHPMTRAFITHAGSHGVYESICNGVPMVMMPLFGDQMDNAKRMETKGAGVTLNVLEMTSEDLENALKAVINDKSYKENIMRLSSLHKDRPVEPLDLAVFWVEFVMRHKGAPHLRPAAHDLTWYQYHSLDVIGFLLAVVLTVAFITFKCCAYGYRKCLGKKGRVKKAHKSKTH
The series is described as follows: Drug metabolism assessed as human recombinant UGT1A1-mediated formation of scutellarein-6,7-diglucuronide after 25 mins by HPLC/UV analysis. Format: ADME.

Series [8] deals with T3, Solute carrier organic anion transporter family member 2B1. The series is described as follows: Ratio of Vmax to Km for drug uptake assessed as OATP2B1 (unknown origin)-mediated drug transport expressed in HEK293 cells by LC-MS/MS analysis. Format: ADME, cell-based.
Series [9] has as its target T1, OATP2B1. The experiment in a line: (§1) Drug uptake assessed as OATP2B1 (unknown origin)-mediated drug transport expressed in HEK293 cells after 7 mins by LC-MS/MS analysis. Format: ADME, cell-based. The note with it: human, HEK293 cells expressing OATP2B1.
The target in series [10] is T3, Solute carrier organic anion transporter family member 2B1. Described as §1. It counts as ADME, cell-based.

ATP-binding cassette sub-family C member 3, sequence (O15438 whole entry): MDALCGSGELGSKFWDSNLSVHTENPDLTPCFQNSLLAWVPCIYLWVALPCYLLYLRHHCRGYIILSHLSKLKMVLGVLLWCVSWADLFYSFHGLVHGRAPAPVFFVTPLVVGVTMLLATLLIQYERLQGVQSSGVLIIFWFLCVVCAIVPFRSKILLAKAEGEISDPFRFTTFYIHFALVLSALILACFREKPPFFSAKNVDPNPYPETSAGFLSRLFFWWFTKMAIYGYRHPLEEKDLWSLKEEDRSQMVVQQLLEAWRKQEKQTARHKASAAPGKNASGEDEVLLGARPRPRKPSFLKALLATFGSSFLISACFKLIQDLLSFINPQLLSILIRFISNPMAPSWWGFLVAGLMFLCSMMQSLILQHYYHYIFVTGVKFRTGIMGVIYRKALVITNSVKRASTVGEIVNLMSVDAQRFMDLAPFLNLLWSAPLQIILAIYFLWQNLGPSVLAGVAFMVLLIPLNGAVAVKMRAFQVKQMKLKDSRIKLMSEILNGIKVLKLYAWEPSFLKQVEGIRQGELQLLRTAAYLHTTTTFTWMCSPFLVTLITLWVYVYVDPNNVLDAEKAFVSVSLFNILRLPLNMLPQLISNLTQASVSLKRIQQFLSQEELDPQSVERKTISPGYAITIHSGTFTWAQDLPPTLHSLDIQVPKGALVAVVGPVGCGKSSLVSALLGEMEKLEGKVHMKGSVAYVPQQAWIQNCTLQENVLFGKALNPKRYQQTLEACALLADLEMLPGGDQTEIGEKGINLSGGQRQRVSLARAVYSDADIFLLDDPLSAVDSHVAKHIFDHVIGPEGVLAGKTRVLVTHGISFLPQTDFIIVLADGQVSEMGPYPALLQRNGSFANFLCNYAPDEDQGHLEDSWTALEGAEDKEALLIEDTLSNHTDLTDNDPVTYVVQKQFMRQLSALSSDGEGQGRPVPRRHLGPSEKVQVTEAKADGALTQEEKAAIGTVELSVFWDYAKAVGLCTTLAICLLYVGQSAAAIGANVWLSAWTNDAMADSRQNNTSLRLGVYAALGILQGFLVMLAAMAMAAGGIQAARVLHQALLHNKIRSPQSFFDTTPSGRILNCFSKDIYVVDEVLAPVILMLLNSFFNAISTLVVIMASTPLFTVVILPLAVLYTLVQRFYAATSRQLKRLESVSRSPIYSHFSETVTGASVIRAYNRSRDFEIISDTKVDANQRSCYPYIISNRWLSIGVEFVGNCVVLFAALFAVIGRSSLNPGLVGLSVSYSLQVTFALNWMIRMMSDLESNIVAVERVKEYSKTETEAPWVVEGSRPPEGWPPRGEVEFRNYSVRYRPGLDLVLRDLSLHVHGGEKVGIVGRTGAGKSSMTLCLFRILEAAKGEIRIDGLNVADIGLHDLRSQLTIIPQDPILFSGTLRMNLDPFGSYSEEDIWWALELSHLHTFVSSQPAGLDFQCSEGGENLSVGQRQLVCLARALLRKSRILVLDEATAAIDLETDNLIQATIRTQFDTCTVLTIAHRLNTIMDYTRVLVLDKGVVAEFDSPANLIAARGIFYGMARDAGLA

As to `O=C(O)[C@H]1O[C@@H](Oc2c(O)cc3oc(-c4ccc(O)cc4)cc(=O)c3c2O)[C@H](O)[C@@H](O)[C@@H]1O`, at OATP2B1 [1], the uptake ratio amounted to 20.4. Besides, the values for the Vmax/Km in [2] and in [4] were 7.96 µL/min/mg and 2.84 µL/min/mg, respectively. Also, the inhibitory constant (Ki) in series [3] was 25.9 µM. For the same compound, the “inhibition (INH)” value in series [5] is recorded as “Active”.

In the case of `O=C(O)[C@H]1O[C@@H](Oc2cc3oc(-c4ccc(O)cc4)cc(=O)c3c(O)c2O)[C@H](O)[C@@H](O)[C@@H]1O` [SCUTELLARIN], the uptake ratio on OATP2B1 [1] turned out to be 65. Further, the Retention_time in the series on Homo sapiens is reported as 7.93 min. This compound came in with a Cmax in series [6] below 4 nM. Also, the Ki in series [7] worked out at 96.6 µM; in series [10], 25.9 µM. In addition, the “inhibition (INH)” value in series [5] is on record as “Not Active”. Besides, the Vmax/Km in [8] turned out to be 11.1 µL/min/mg. In addition, the Michaelis constant (Km) at 7 min on OATP2B1 [9] was 43 µM. Moreover, in series [10] (human, hek293, 7 min), the maximal velocity (Vmax) was determined as 113 pmol/min/mg.

For the origin of these results see ChEMBL document CHEMBL3526031, “Mechanistic studies on the absorption and disposition of scutellarin in humans: selective OATP2B1-mediated hepatic uptake is a likely key determinant for its unique pharmacokinetic characteristics” (Drug Metab Dispos, 2012).
